Drawing on paper PMC6576746, “Rational discovery of dual-indication multi-target PDE/Kinase inhibitor for precision anti-cancer therapy using structural systems pharmacology” (PLoS Computational Biology, 2019), this text covers remaining binding for one molecule.

Holding throughout (experiment): biochemical
Common to all, as to parameters: DiscoverX KinomeScan competition binding assay across human kinases; per cent of control at 10 and 100 uM
Common to all, as to conditions: competition binding, % of control; read-out: Percent Control (100 uM Levosimendan)

Experiment [1] concerns the target T1, RSK4(Kin.Dom.1-N-terminal) (Homo sapiens, UniProt Q9UK32).
T1 construct: gene RPS6KA6; Kin.Dom.1-N-terminal
Put shortly: (§1)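 Binding is expressed as %control, normalised between positive and negative control signals. The compound (levosimendan) was tested at 10 μM and 100 μM in the DiscoverX KinomeScan competition binding format against human kinases.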

The target of a further experiment is PRKG2 (Homo sapiens, UniProt Q13237). Put shortly:
as §1

The target of a further experiment is MYO3A (Homo sapiens, UniProt Q8NEV4). Put shortly:
as §1

Another experiment concerns the target ALK (Homo sapiens, UniProt Q9UM73). Put shortly: as §1
The next experiment concerns the target MARK1 (Homo sapiens, UniProt Q9P0L2). Put shortly: as §1
Another experiment concerns the target PHKG1 (Homo sapiens, UniProt Q16816). Put shortly: as §1
Another experiment concerns the target BTK (Homo sapiens, UniProt Q06187). Put shortly: as §1
In the next experiment the target is EPHA3 (Homo sapiens, UniProt P29320). Put shortly:
as §1

For another experiment, the target named is ROCK1 (Homo sapiens, UniProt Q13464). Put shortly:
as §1

The target of the next experiment is SIK2 (Homo sapiens, UniProt Q9H0K1). Put shortly:
as §1

In a further experiment the target is CASK (Homo sapiens, UniProt O14936). Put shortly:
as §1

The target of the next experiment is T2, ERK1 (Homo sapiens, UniProt P27361).
T2 construct: gene MAPK3
Put shortly:
as §1

Another experiment addresses MTOR (Homo sapiens, UniProt P42345). Put shortly:
as §1

In the next experiment the target is T3, MST2 (Homo sapiens, UniProt Q13188).
T3 construct: gene STK3
Put shortly:
as §1

Experiment [2] deals with T4, ABL1(Q252H)-nonphosphorylated (Homo sapiens, UniProt P00519, Q252H).
T4 construct: nonphosphorylated
Put shortly: as §1

In a further experiment the target is TLK1 (Homo sapiens, UniProt Q9UKI8). Put shortly: as §1
The next experiment deals with PIK3CA (Homo sapiens, UniProt P42336). Put shortly: as §1
The target of another experiment is DDR2 (Homo sapiens, UniProt Q16832). Put shortly:
as §1

A further experiment deals with STK16 (Homo sapiens, UniProt O75716). Put shortly:
as §1

The target of a further experiment is T5, MEK1 (Homo sapiens, UniProt Q02750).
T5 construct: gene MAP2K1
T5 sequence (Q02750 whole entry): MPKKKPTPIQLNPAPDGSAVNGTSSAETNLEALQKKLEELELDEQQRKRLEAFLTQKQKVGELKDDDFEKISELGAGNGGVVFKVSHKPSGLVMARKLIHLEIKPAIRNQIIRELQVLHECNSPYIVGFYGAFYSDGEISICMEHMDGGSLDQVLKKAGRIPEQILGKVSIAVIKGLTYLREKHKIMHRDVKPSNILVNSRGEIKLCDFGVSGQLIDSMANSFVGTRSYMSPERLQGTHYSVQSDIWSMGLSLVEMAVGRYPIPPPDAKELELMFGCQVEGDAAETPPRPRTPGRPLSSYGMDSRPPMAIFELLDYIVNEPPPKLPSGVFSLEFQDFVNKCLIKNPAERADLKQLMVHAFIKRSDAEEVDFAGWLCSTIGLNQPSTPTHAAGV
Put shortly: as §1

Sequence of DDR2 (Q16832 whole entry): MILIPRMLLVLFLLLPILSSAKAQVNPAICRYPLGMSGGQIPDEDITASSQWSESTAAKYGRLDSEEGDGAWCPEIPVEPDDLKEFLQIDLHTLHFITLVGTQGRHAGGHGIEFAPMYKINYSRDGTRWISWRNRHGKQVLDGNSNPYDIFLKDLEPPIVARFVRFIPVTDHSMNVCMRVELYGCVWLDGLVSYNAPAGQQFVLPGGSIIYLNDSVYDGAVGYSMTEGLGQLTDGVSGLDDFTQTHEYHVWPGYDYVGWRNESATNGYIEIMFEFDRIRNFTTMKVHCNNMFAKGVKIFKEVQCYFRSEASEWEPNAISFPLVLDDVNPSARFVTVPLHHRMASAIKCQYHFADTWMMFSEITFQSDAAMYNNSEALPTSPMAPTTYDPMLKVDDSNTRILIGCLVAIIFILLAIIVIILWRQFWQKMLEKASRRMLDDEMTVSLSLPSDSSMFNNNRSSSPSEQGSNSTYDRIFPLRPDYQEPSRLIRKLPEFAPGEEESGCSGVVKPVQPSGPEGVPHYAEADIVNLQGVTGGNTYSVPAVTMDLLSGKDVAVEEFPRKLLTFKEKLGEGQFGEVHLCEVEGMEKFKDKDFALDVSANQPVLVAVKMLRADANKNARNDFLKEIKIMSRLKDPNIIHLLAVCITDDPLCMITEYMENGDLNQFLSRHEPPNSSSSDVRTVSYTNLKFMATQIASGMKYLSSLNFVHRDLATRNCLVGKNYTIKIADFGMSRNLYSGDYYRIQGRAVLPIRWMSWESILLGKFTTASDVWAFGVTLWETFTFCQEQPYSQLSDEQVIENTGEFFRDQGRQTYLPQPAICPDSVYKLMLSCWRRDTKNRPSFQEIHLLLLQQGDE
Sequence of EPHA3 (P29320 whole entry): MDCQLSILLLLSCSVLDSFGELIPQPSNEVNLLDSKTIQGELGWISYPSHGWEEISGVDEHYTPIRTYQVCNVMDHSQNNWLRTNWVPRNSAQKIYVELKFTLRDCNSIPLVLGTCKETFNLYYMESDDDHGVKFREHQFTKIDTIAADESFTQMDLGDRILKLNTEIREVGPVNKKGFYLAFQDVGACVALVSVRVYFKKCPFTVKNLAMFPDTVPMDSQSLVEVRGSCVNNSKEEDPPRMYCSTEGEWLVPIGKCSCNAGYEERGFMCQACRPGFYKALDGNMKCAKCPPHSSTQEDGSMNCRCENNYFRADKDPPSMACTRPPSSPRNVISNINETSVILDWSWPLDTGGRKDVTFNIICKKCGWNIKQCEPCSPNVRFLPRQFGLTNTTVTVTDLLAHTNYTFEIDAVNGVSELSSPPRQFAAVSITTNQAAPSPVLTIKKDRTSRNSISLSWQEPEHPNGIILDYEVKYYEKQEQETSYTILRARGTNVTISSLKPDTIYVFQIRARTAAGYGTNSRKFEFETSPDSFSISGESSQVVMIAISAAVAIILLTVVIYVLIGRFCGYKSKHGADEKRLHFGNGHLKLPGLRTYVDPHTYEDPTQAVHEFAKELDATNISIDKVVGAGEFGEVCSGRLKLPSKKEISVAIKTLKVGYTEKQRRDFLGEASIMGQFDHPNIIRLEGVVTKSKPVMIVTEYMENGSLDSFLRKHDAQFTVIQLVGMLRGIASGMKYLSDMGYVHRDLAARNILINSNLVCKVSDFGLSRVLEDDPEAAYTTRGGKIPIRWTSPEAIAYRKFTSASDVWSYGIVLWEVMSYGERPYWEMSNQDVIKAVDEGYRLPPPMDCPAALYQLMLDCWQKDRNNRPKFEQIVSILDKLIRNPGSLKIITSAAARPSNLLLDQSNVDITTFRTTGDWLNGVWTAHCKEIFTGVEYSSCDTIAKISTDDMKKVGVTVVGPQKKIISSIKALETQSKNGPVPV
Sequence of CASK (O14936 whole entry): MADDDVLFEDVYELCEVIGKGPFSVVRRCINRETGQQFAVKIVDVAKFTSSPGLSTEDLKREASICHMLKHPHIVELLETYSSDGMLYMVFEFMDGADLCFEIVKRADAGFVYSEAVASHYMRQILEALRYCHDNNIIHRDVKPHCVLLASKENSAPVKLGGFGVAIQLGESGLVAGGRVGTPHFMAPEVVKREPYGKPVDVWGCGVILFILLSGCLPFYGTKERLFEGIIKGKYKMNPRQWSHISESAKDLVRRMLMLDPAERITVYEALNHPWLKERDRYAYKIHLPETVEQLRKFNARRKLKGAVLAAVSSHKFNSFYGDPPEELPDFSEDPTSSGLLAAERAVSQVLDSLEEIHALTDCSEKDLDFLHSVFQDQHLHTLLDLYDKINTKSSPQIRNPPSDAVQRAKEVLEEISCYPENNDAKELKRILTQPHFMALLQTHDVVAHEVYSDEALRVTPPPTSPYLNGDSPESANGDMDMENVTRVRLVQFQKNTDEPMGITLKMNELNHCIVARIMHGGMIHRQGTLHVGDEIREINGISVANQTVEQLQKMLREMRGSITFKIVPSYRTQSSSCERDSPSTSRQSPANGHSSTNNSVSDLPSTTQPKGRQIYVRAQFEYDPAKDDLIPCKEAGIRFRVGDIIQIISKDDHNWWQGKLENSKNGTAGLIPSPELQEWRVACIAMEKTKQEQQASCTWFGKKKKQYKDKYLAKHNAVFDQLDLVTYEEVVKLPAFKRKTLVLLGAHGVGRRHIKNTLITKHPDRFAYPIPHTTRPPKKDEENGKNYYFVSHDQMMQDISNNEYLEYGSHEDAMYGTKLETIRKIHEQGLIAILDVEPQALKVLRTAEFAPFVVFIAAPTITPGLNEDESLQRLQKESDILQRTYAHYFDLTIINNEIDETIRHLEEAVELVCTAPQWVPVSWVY
Sequence of ROCK1 (Q13464 whole entry): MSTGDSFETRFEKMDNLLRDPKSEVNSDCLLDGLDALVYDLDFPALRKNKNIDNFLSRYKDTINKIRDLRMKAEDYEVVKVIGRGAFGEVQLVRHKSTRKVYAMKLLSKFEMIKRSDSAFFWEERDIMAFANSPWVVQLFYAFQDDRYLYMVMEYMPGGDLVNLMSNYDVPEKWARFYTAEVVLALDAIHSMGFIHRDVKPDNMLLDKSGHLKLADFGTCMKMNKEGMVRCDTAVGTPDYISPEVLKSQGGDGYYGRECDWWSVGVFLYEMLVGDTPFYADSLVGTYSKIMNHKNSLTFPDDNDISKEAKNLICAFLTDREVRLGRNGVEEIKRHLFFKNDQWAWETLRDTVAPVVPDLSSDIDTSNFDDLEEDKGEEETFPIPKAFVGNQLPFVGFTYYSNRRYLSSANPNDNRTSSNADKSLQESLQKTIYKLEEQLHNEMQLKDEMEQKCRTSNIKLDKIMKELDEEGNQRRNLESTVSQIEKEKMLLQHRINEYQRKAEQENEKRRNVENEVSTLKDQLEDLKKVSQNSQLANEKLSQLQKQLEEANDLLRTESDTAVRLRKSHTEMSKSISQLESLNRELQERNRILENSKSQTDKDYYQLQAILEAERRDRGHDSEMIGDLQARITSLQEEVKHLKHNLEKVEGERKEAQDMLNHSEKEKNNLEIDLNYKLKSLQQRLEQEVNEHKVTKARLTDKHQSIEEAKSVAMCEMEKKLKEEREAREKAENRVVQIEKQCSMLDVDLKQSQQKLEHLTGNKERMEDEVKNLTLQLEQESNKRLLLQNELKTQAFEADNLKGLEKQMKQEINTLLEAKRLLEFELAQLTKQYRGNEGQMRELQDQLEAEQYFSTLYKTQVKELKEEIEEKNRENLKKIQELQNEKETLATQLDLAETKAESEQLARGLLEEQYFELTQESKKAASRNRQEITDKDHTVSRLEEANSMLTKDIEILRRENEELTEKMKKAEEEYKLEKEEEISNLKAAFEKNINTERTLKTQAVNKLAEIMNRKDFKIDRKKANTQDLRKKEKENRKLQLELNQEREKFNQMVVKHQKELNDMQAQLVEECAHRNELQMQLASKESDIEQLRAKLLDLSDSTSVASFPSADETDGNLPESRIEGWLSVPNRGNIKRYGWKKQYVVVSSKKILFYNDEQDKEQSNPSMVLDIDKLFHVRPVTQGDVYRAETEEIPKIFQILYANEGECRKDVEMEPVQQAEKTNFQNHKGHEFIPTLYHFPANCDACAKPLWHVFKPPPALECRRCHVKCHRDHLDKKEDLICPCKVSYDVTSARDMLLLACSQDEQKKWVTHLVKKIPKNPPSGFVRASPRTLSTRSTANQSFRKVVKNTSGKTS
Sequence of STK16 (O75716 whole entry): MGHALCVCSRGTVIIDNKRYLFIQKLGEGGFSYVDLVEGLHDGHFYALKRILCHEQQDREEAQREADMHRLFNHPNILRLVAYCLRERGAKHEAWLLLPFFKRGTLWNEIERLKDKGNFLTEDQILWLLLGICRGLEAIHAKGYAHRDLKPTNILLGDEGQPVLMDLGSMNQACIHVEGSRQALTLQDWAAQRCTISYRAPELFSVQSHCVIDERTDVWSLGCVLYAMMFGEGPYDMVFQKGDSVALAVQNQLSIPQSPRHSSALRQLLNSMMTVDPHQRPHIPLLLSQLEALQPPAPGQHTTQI

As for `C[C@@H]1CC(=O)NN=C1c1ccc(NN=C(C#N)C#N)cc1` [levosimendan], the remaining binding at 100 µM in experiment [1] turned out to be 100%; at PRKG2 it was 98%; at MYO3A it was 97%; on ALK, 76%; at MARK1, 85%; at PHKG1 it was 89%. In addition, the remaining binding at 100 µM was determined as 100% on BTK; 97% at EPHA3; 90% at ROCK1; 65% at SIK2; 88% at CASK; 87% on ERK1. Besides, the remaining binding at 100 µM on MTOR is 100%; on MST2, 100%; in experiment [2] it was 61%; at TLK1 it was 100%; at PIK3CA, 96%; at DDR2, 79%. For the same molecule, the results for the remaining binding at 100 µM on STK16 and at MEK1 were 80% and 85%, respectively.
